The record followed here is patent US9340574B2, “Inhibitors of protein tyrosine phosphatases” (Indiana University Research and Technology Corporation, priority 2012, dated 2016).

The target in one experiment is PTP-MEG1 (Homo sapiens (Human), UniProt P29074). Nature of the experiment: pNPP hydrolysis enzyme assay, PTP-MEG1. The format is biochemical. How it is done:
(§1) Enzyme kinetic assay. PTP activity was assayed using p-nitrophenyl phosphate (pNPP) as a substrate in 3,3-dimethylglutarate buffer (50 mM 3,3-dimethylglutarate, pH 7.0, 1 mM EDTA, 150 mM NaCl, 2 mM DTT, 0.1 mg/mL BSA) at 25° C. The assays were performed in 96-well plates. Normally, to determine the IC50 values, the reaction was initiated by the addition of enzyme (final concentration at 10 nM) to a reaction mixture (0.2 mL) containing 2 mM (Km for the substrate) pNPP with various concentrations of inhibitors. The reaction rate was measured using a SpectraMax Plus 384 Microplate Spectrophotometer (Molecular Devices). To determine the mode of inhibition, the reactions were initiated by the addition of PTP-MEG2 to the reaction mixtures (0.2 mL) containing various concentrations of pNPP with different concentrations of the inhibitor 7. Data were fitted using SigmaPlot Enzyme Kinetics Module (Systat Software, Inc.).

For another experiment, the target named is PTP-MEG2 (Homo sapiens (Human), UniProt P43378). Nature of the experiment: pNPP hydrolysis enzyme assay, PTP-MEG2. The format is biochemical. How it is done: as §1
PTP-MEG2 Overexpression, and Purification. The expression vector containing residues 277-582 of PTP-MEG2 catalytic domain was provided by Stefan Knapp at the University of Oxford. For protein expression, transformed cells were grown at 37° C. in Luria broth (LB) containing […] ampicillin for 4 h to an OD600 nm @0.6, and then induced for overnight at 18° C. with 0.4 mM IPTG. Cells were harvested by centrifugation (6500 rpm for 15 min at 4° C.), and the cell pellets from 1.5 L LB medium were suspended in 30 mL of ice-cold lysis buffer consisting of 5 mM imidazole, 500 mM NaCl, 20 mM Tris-HCl (pH 7.9), 0.05 mg/mL trypsin inhibitor and 0.1 mM PMSF. The suspensions were passed twice through a French Press at 1200 psi, and the cell lysates were centrifuged at 4° C. for 30 min at 16,000 rpm. The supernatants were mixed with 2 mL Ni-NTA Agarose (His*Bind Resin) (Qiagen) at 4° C. for 1 hour, then transferred mixture to an empty column. The column was washed by 200 mL binding buffer (5 mM imidazole, 500 mM NaCl, 20 mM Tris-HCl (pH 7.9)), followed by 20 mL wash buffer (20 mM imidazole, 500 mM NaCl, 20 mM Tris-HCl (pH 7.9)), and then eluted with 20 mL elution buffer (200 mM imidazole, 500 mM NaCl, 20 mM Tris-HCl (pH 7.9), 5 mM DTT). The elution was dialyzed for 6 h at 4° C. against 1 L buffer A (50 mM NaCl, 20 mM MES (pH6.0), 1 mM EDTA), and then loaded onto a Mono S column equilibrated at 4° C. with buffer A. The column was washed with 10 ml buffer A and then eluted with a 40 mL linear gradient of 0 to 1M NaCl in buffer A. The PTP-MEG2 was eluted at 0.35 M NaCl. The column fractions were analyzed by measuring the absorbance at 280 nm and by carrying out SDS-PAGE analysis. The fractions were combined, dialyzed against 1 L buffer A and concentrated at 4° C. to 8 mg/mL using an Amicon concentrator and then stored at −80° C.

The next experiment concerns the target VHR (Homo sapiens (Human), UniProt P51452). In words: pNPP hydrolysis enzyme assay, VHR. In kind it is biochemical. How it is done:
as §1

For another experiment, the target named is VHX (Homo sapiens (Human), UniProt Q9NRW4). Nature of the experiment: pNPP hydrolysis enzyme assay, VHX. The format is biochemical. How it is done: as §1
For a further experiment, the target named is LAR (Homo sapiens (Human), UniProt P10586). In words: pNPP hydrolysis enzyme assay, LAR. In kind it is biochemical. The procedure: as §1
The subject of experiment [1] is Foxo1 target genes in mouse primary hepatocytes. In words: Foxo1 target gene expression in mouse primary hepatocytes (real-time PCR). The format is cell-based. The following applies: with insulin, overnight, normalized with Ppia. How it is done: FIGS. 4A-B depict the ability of PTP-MEG2 inhibitor Compound 7 to sensitize insulin signaling in primary hepatocytes. […] Mouse primary hepatocytes were cultured in 0.5% FBS DMEM medium overnight. Prior to insulin stimulation, the cells were pretreated with Compound 7 or 8 for 1 hour. Then the cells were stimulated with 5 nM insulin for 5 minutes. Insulin signaling was analyzed by Western Blots using phospho-specific antibodies. […] Mouse primary hepatocytes were cultured in DMEM medium plus 0.5% FBS for overnight in the presence or absence of insulin or Compound 7 or 8. Then the cells were harvested for mRNA isolation and gene expression analysis using real-time PCR. The mRNA levels of Foxo1 target genes were normalized with Ppia as an internal control. Data are presented as mean±SEM. *, P<0.05 for Compound 7 vs. DMSO; #, P<0.05 for INS+Compound 7 vs. INS alone.
RNA isolation and real-time PCR. RNA isolation was performed as described previously (Jänne, et al. Nat. Rev. Drug Discov. 2009, 8, 709-723). Real-time RT-PCR was performed in two steps: first, cDNA was synthesized using a cDNA synthesis kit (Applied Biosystems Inc.); second, cDNA was analyzed by real-time PCR using SYBR Green Master Mix (Promega). […]
(In general: In qPCR the cycle at which signal appears reflects the starting amount.)

Another experiment deals with PTPε (Homo sapiens (Human), UniProt P23469). Nature of the experiment: pNPP hydrolysis enzyme assay, PTPε. In kind it is biochemical. How it is done:
as §1

The target in a further experiment is DEP1 (Homo sapiens (Human), UniProt Q12913). In words: pNPP hydrolysis enzyme assay, DEP1. In kind it is biochemical. The procedure:
as §1

PTP-MEG2, sequence (P43378 277-582): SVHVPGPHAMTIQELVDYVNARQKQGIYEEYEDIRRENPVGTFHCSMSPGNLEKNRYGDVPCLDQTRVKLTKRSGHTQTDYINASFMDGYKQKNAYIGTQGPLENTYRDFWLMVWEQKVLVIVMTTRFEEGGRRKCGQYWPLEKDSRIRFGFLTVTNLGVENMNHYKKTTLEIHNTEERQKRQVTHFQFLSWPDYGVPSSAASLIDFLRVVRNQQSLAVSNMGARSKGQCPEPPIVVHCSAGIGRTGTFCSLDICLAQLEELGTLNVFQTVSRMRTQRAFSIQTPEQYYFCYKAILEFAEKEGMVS
PTP-MEG1, sequence (P29074 whole entry): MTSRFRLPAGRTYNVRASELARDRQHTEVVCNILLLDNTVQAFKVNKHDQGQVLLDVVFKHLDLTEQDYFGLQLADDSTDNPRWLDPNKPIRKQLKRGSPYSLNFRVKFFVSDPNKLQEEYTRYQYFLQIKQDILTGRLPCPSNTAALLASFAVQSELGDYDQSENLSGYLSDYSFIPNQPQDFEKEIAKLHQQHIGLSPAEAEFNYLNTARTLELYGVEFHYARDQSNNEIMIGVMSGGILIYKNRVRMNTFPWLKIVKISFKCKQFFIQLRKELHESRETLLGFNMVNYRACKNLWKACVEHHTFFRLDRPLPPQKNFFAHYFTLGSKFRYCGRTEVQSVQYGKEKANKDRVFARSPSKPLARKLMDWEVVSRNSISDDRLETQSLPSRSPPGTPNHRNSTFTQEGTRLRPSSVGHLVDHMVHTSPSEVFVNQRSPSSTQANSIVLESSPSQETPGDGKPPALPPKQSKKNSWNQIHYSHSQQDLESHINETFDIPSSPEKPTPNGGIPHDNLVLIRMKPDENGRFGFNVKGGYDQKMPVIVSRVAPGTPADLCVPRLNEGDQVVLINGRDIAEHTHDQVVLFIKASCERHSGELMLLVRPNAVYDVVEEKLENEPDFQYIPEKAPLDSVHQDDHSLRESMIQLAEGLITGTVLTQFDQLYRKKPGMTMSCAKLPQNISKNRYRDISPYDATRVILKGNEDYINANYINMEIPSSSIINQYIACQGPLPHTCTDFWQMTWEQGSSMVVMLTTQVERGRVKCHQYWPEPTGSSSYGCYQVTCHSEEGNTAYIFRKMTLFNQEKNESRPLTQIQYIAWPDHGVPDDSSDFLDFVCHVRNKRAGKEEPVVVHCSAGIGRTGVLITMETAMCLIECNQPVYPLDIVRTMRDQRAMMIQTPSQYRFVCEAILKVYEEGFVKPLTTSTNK
VHX, sequence (Q9NRW4 whole entry): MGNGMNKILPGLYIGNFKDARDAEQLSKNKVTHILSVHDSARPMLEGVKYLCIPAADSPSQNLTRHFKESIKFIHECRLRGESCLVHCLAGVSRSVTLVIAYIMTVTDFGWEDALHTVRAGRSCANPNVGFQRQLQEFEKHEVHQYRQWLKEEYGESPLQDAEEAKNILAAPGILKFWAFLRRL
VHR, sequence (P51452 whole entry, species assumed): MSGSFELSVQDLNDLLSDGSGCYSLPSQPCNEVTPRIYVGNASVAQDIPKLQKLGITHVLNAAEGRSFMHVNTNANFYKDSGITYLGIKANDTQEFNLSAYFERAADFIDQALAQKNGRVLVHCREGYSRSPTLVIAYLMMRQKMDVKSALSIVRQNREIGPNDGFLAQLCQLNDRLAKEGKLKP
DEP1, sequence (Q12913 36-1337, species assumed): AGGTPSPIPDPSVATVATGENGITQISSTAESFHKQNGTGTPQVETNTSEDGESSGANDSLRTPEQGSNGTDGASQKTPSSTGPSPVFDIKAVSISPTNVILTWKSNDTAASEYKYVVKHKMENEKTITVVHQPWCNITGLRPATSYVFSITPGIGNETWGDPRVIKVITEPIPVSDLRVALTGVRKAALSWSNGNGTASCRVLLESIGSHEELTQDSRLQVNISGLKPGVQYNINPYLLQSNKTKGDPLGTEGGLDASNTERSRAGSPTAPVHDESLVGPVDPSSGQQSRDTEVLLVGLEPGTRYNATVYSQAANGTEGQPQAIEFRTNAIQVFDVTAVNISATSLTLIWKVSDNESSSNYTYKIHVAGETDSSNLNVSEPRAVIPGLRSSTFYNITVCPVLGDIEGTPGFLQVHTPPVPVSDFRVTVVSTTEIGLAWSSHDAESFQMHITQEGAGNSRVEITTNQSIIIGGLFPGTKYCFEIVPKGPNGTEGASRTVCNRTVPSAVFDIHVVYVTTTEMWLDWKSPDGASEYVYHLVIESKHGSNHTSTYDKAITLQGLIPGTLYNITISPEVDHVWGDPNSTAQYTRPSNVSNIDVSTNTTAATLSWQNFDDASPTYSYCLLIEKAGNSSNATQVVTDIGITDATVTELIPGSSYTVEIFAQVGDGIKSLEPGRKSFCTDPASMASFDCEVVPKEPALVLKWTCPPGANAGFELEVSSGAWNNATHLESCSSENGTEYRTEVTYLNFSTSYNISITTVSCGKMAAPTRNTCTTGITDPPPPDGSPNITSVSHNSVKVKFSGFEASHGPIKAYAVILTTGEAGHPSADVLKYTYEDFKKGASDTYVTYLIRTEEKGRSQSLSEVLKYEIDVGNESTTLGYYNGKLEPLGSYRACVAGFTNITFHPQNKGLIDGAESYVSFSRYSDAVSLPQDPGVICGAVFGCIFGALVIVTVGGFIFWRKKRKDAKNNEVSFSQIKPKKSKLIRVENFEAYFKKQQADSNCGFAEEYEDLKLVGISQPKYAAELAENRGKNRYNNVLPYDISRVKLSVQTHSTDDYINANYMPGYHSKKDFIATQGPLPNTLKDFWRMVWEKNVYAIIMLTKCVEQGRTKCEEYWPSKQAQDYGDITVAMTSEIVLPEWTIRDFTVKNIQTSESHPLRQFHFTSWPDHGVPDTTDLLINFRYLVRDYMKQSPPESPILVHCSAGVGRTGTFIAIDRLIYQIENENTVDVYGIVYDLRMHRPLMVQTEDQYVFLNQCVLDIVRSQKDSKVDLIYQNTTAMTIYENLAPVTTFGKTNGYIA
PTPε, sequence (P23469 20-700): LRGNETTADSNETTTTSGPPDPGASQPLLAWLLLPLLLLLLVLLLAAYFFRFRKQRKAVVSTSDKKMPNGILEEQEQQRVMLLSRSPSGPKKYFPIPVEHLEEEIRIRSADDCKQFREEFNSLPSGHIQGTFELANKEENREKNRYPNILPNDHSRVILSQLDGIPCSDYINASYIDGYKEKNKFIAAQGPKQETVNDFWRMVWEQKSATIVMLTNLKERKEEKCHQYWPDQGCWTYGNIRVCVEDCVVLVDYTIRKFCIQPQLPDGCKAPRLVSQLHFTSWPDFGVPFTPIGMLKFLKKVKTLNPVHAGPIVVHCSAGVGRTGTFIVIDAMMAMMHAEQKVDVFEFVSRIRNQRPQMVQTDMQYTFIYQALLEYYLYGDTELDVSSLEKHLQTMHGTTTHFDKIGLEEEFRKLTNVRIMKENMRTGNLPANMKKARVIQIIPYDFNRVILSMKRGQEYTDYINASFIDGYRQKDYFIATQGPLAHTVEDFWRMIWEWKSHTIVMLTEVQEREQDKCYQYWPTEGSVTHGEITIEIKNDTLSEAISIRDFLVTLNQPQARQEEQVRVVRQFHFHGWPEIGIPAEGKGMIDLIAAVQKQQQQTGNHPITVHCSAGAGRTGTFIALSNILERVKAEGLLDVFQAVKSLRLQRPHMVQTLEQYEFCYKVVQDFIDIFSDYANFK

One may read the IC50 as the concentration that inhibits the measured activity by half. What is called Ki is a dissociation constant, usually derived from enzyme kinetics or from competition with a known ligand. A higher Ki goes with lower affinity. Consider `COc1cc(CC(=O)NCC(NC(=O)C(CCCNC(=O)c2cccc(I)c2)NC(=O)C(Cc2ccc(C(F)(F)P(=O)(O)O)cc2)NC(=O)c2ccc(C)c(Br)c2)C(N)=O)ccc1O` (centres unmarked) [Compound 7], for which the 50% inhibitory concentration (IC50) was over 10000 nM against PTP-MEG1; 75 ± 10 nM at PTP-MEG2 (pNPP substrate, read-out: IC50 (nM) PTP-MEG2); over 10000 nM against VHR; over 10000 nM against VHX; over 10000 nM against LAR; over 10000 nM against PTPε. Also, the IC50 against DEP1 is over 10000 nM. Further, at PTP-MEG2 (Compound 5 vs Compound 3, Compound 7 vs Compound 5), the “improvement in potency / binding affinity for PTP-MEG2 over the preceding lead” value is listed as 3.6 fold. On PTP-MEG2 (kinetic analysis), the “mode of inhibition of PTP-MEG2” value was “reversible and competitive inhibitor”. Moreover, at PTP-MEG2 (kinetic analysis, Lineweaver-Burk), the inhibition constant Ki came out at 0.034 ± 0.002 µM. Moreover, the “Pdk4, Igfbp1, and G6pc gene expression (Foxo1 transcriptional activity)” value in experiment [1] is “synergistic reduction”.
